This is an account of results in patent publication US20030165954A1, “Cancer profiles” (Third Wave Technologies, Inc., priority 2002, published 2003).

The structures appear in SMILES notation.

For this series the following is noted: mouse, in vivo, iv.

On to `CN(Cc1cnc2nc(N)nc(N)c2n1)c1ccc(C(=O)N[C@@H](CCC(=O)O)C(=O)O)cc1` [MTX, methotrexate], for which the plasma concentrations entry is listed as “did not reach the levels in nude mice that they do in patients receiving clinical doses”.

As for `O=c1[nH]cc(F)c(=O)[nH]1` [5FU, 5-fluorouracil], the plasma concentrations result is given as “did not reach the levels in nude mice that they do in patients receiving clinical doses”.
